Reference: patent US7022719B2, “Preventing and reversing the formation of advance glycosylation endproducts” (Alteon, Inc., priority 1995, dated 2006)
Like-named read-outs stand apart in the source and are kept apart here. One block for each compound: values may come before it.

Legend:
[1] = test system: cross-linking of glycated bovine serum albumin (AGE-BSA) to rat tail tendon collagen; assay: Cross-linking Inhibition Assay; conditions: for IC50: inhibition of AGE-BSA cross-linking to collagen-coated plate
Experimental: The following method was used to evaluate the ability of the compounds of the present invention to inhibit the cross-linking of glycated bovine serum albumin (AGE-BSA) to the rat tail tendon collagen-coated 96-well plate.
The blocking solution was removed from the wells by, washing the plate twice with PBS-'Tween 20 solution (0.05% Tween 20) using a NUNq-multiprobe or Dynatech ELISA-plate washer. Cross-linking of AGE-BSA (1 to 10 mg per well depending on the batch of AGE-BSA) to rat tail tendon collagen coated plate was performed with and without the testing ‘compound dissolved in PBS buffer at pH 7.4 at the desired concentrations by the, addition of 50 μl each of the AGE-BSA diluted in PBS or in the solution of test compound at 37° C. for 4 hours. Unbrowned BSA in PBS buffer with or without testing compound were added to the separate wells as the blanks. The un-cross-linked AGE-BSA was then removed by washing the wells three times with PBS-Tween buffer. The amount of AGE-BSA cross-linked to the tail tendon collagen-coated plate was then quantitated using a polyclonal antibody raised against AGE-RNase. After a one-hour incubation period, AGE antibody was removed by washing 4 times with PBS-Tween.
The bound AGE antibody was then detected with the addition of horseradish peroxidase-conjugated secondary antibody—goat anti-rabbit immunoglobulin and incubation for 30 minutes. […] The reaction was allowed for an additional 15 minutes and the absorbance was read at 410 nm in a Dynatech plate reader.

[2] = test system: AGE-BSA crosslinked to collagen; assay: Cross-link Breaking Assay (sandwich enzyme immunoassay); format: biochemical
Experimental: The present invention also involves a novel sandwich enzyme immunoassay used to ascertain the ability of test compounds to “break” or reverse already formed advanced glycosylation endproducts by detecting the breaking of AGE (Advanced glycosylation endproduct) moieties from AGE-crosslinked protein. This assay comprises: • a) incubation of AGE-modified bovine serum albumin (AGE BSA) on collagen-coated wells of microtiter plates for a period of 2–6 hours' at a temperature of 37° C.; • b) washing of the wells with PBS-Tween; • c) application of the test compounds to the washed wells of step b; • d) incubation of the test compounds applied to the washed wells for an additional 12–24 hours at a temperature of about 37° C.; and • e) detection of the AGE-breaking using an antibody raised against AGE-ribonuclease or cross-link breaking with an antibody against BSA.
In order to ascertain the ability of the compounds of the instant invention to “break” or reverse already formed advanced glycosylation endproducts, a novel sandwich enzyme immunoassay was developed which detects breaking of AGE (Advanced glycosylation endproduct) moieties from AGE-crosslinked protein. The assay utilizes collagen-coated 96 well microtiter plates that are obtained commercially. […] Following an incubation period of 16 hours (37° C.) cross-link-breaking is detected using an antibody raised against AGE-ribonuclease or with an antibody against BSA. […] Details of the assay are as follows:
Methods Preparation of Solutions and Buffers • 1. AGE-BSA stock solutions were prepared as follows. Sodium phosphate buffer (0.4 M) was prepared by dissolving 6 grams of monobasic sodium phosphate in 100 ml of distilled water, 7 grams of dibasic sodium phosphate (0.4 M) in 100 ml of distilled water and adjusting the pH of the dibasic solution to 7.4 with the monobasic solution. Sodium azide (0.02 grams) was added per 100 ml volume to inhibit bacterial growth. The BSA solution was prepared as follows: 400 mg of Type V BSA (bovine serum albumin) was added for each ml of sodium phosphate buffer (above). A 400 mM glucose solution was prepared by dissolving 7.2 grams of dextrose in 100 ml of sodium phosphate buffer (above). The BSA and glucose solutions were mixed 1:1 and incubated at 37° C. for 12 weeks. The pH of the incubation mixture was monitored weekly and adjusted to pH 7.4 if necessary. After 12 weeks, the AGE-BSA solution was dialyzed against PBS for 48 hours with four buffer changes, each at a 1:500 ratio of solution to dialysis buffer. Protein concentration was determined by the micro-Lowry method. The AGE-BSA stock solution was aliquoted and stored at −20° C. […] Working solutions for crosslinking and breaking studies were prepared as follows. Test compounds were dissolved in PBS and the pH was adjusted to pH 7.4 if necessary. AGE-BSA stock solution was diluted in PBS to measure maximum crosslinking and in the inhibitor solution for testing inhibitory activity of compounds. The concentration of AGE-BSA necessary to achieve the optimum sensitivity was determined by initial titration of each lot of AGE-BSA. • 3. Wash buffer (“PBS-Tween”) was, prepared as follows. PBS was prepared by dissolving the following salts in one liter of distilled water: NaCl, 8 grams; KC1, 0.2 gram, KH2PO4. […] Tween-20 was added to a final concentration of 0.05% (vol/vol). • 4. Substrates for detection of secondary antibody binding were prepared by diluting the HRP substrate buffer 1:10 in distilled water and mixing with ABTS chromogen 1:50 just prior to use. Assay Procedures • 1. Biocoat plates were blocked with 300 μl of “Superbloc”. Plates were blocked for one hour at room temperature and were washed with PBS-Tween three times with the Dynatech platewasher before addition of test reagents. • 2. Each experiment was set up in the following manner. The first three wells of the Biocoat plate were used for the reagent blank.

[3] = detection with anti-AGE antibody, read-out: IC50 (mM) Anti-AGE
[4] = detection with anti-BSA antibody, read-out: IC50 (mM) Anti-BSA
[5] = anti-AGE antibody, concentration not given
[6] = anti-BSA antibody, concentration not given

Compound: Cc1sc[n+](CC(=O)c2ccccc2)c1C.[Br-] [3-(2-phenyl-2-oxoethyl)-4,5-dimethylthiazolium bromide]
Relative Cross-link Inhibition (at 10 mM) ([1]; at 10 mM): 37%
Breaking Anti-AGE ([2]; anti-AGE antibody, at 30 mM): 56%/ND (30)

IC50 [1]: 4500 µM
Breaking Anti-AGE ([2]; anti-AGE antibody, at 10 mM): 56%
Breaking Anti-BSA ([2]; anti-BSA antibody, at 10 mM): 38%
Compound: Cn1cc[n+](CC(=O)c2cc(C(C)(C)C)c(O)c(C(C)(C)C)c2)c1 [1-methyl-3-(2-(3′,5′-di-tert-butyl-4′-hydroxyphenyl)-2-oxoethyl]-imidazolium bromide]

IC50 [1]: 12600 µM
Compound: Cc1c[n+](CC(=O)c2ccccc2)cs1 [3-(2-phenyl-2-oxoethyl)-5-methyl-thiazolium bromide]

Compound: Cc1csc[n+]1CC(=O)c1ccccc1.[Br-] [3-(2-phenyl-2-oxoethyl)-4-methylthiazolium bromide]
IC50 [1]: 5600 µM
Breaking Anti-AGE ([2]; anti-AGE antibody, at 30 mM): 68%
Breaking Anti-BSA ([2]; anti-BSA antibody, at 30 mM): 66%
IC50 [2, 3]: 0.23 mM
IC50 [2, 4]: 0.3 mM

Compound: COC(=O)C[n+]1ccsc1.[Br-] [3-(2-Methoxy-2-oxoethyl)-thiazolium bromide]
IC50 [1]: 250 µM
Breaking Anti-AGE ([2]; anti-AGE antibody, at 30 mM): 38%
Breaking Anti-BSA ([2]; anti-BSA antibody, at 30 mM): 41%

Breaking Anti-AGE [2, 5]: 56%
Breaking Anti-BSA [2, 6]: 93%
IC50 [2, 3]: 0.83 mM
IC50 [2, 4]: 0.75 mM
Compound: CC(=O)C[n+]1ccsc1.[Cl-] [3-(2-methyl-2-oxoethyl) thiazolium chloride]

Compound: CCCCCc1ccc(C(=O)C[n+]2csc(CCO)c2C)cc1.[Br-] [3-(2-(4′-n-pentylphenyl)-2-oxoethyl]-4-methyl-5-(2′-hydroxyethyl)-thiazolinium]
Relative Cross-link Inhibition ([1]; 3 mM): 52% @ 3 mM
IC50 [1]: 1530 µM

Compound: Nc1ccc2c(c1)sc(N)[n+]2CC(=O)c1ccc(Br)cc1.[Br-] [2,6-diamino-3 (2-(4′-bromophenyl)-2-oxoethyl] benzothiazolium bromide]
Breaking Anti-AGE ([2]; anti-AGE antibody, at 10 mM): 27%
Breaking Anti-BSA ([2]; anti-BSA antibody, at 10 mM): 44%

Breaking Anti-AGE ([2]; anti-AGE antibody, at 10 mM): 6%
Breaking Anti-BSA ([2]; anti-BSA antibody, at 10 mM): 27%
Compound: Cc1c(CCO)sc[n+]1Cc1c(Cl)cccc1Cl.[Cl-] [3-(2′,6′-dichlorobenzyl)-4-methyl-5-(2′-15 hydroxyethyl)-thiazolium chloride]

Compound: CCN(CC)c1ccc(C(=O)C[n+]2csc(CCO)c2C)cc1 [3-(2-4′-diethylaminophenyl)-2-oxoethyl]-4-qj. methyl-5-(2′-hydroxyethyl)-thiazolinium bromide]
IC50 [1]: 2800 µM

IC50 [1]: 74.9 µM
Breaking Anti-AGE ([2]; anti-AGE antibody, at 30 mM): 87%
Breaking Anti-BSA ([2]; anti-BSA antibody, at 30 mM): 54%
Compound: Nc1sc2ccccc2[n+]1N [2,3-diaminio-benzothiazolium mesitylenesulfonate]

Compound: Cc1c(CCO)sc[n+]1CC(N)=O.[Br-] [3-(2-amino-2-oxoethyl)-4-methyl-5-(2-hydroxyethyl) thiazolium bromide]
IC50 [1]: 1420 µM
Breaking Anti-AGE [2, 5]: 65%
Breaking Anti-BSA [2, 6]: 57%
IC50 [2, 3]: 0.012 mM
IC50 [2, 4]: 0.12 mM

Compound: CCOC(=O)c1ccc(NC(=O)C[n+]2csc(CCO)c2C)cc1.[Br-] [3-(2-4′-carbethoxyanilino)-2-oxoethyl]-4-methyl-5-(2′-hydroxyethyl)-thiazolium bromide]
Relative Cross-link Inhibition [1]: 8.8% (1 mm)
Breaking Anti-AGE ([2]; anti-AGE antibody, at 10 mM): 48%
Breaking Anti-BSA ([2]; anti-BSA antibody, at 10 mM): 57%

Compound: NC(=O)C[n+]1csc2ccccc21.[Br-] [3-(2-amino-2-oxoethyl)-benzothiazolium bromide]
IC50 [1]: 20 µM
Breaking Anti-AGE [2, 5]: 77%
Breaking Anti-BSA [2, 6]: 65%
IC50 [2, 3]: 0.4 mM
IC50 [2, 4]: 0.52 mM

Compound: COc1ccc(C(=O)C[n+]2c(N)sc3cc(N)ccc32)cc1.[Br-] [2,6-diamino-3 (2-(4′-methoxyphenyl)-2-oxoethyl]benzothiazolium bromide]
Breaking Anti-AGE ([2]; anti-AGE antibody, at 10 mM): 29%
Breaking Anti-BSA ([2]; anti-BSA antibody, at 10 mM): 35%

IC50 [1]: 1760 µM
Breaking Anti-AGE ([2]; anti-AGE antibody, at 10 mM): 24%
Breaking Anti-BSA ([2]; anti-BSA antibody, at 10 mM): 18%
Compound: COC(=O)c1ccc(NC(=O)C[n+]2csc(CCO)c2C)cc1O [3-(2-(4′-carbmethoxy-3′-hydroxyanilino)-2-oxoethyl]-4-methyl-5-(2′-hydroxyethyl)-thiazolium bromide]

IC50 [1]: 2920 µM
Compound: Cc1sc[n+](CC(=O)c2ccc(Br)cc2)c1C [3-(2-(4-bromophenyl]-2-oxoethyl)-4,5-dimethylthiazolium bromide]

Compound: Nc1ccc2c(c1)sc(N)[n+]2CC(=O)c1ccc(F)cc1.[Br-] [2,6-diamino-3 (2-(4′-fluorophenyl-2-oxoethyl]benzothiazolium bromide]
Breaking Anti-AGE ([2]; anti-AGE antibody, at 10 mM): 24%
Breaking Anti-BSA ([2]; anti-BSA antibody, at 10 mM): 40%

IC50 [1]: 28.9 µM
Compound: Cc1c[n+](CC(N)=O)cs1 [3-(2-amino-2-oxoethyl)-5-methyl-thiazolium bromide]

Compound: COC(=O)C[n+]1cscc1C.[Br-] [3-(2-methoxy-2-oxoethyl)-4-methylthiazolium bromide]
Breaking Anti-AGE ([2]; anti-AGE antibody, at 30 mM): 54%
Breaking Anti-BSA ([2]; anti-BSA antibody, at 30 mM): 51%

Compound: O=C(O)C[n+]1csc2ccccc21.[Br-] [3-(carboxymethyl)benzothiazolium bromide, 3-(carboxymethyl)-benzothiazolium bromide]
Breaking Anti-AGE ([2]; anti-AGE antibody, at 30 mM): 63.7%
Breaking Anti-BSA ([2]; anti-BSA antibody, at 30 mM): 17.9%

IC50 [1]: 530 µM
Compound: NC(=O)C[n+]1ccsc1 [3-(2-amino-2-oxoethyl)thiazolium bromide, 3-(2-amino-2-oxoethyl)-thiazolium bromide]

IC50 [1]: 2950 µM
Compound: Cc1c(CCO)sc[n+]1CC(=O)c1ccc(Br)cc1 [3-(2-(41-bromophenyl]-2-oxoethyl)-4-methyl-5-(2-hydroxyethyl)thiazolium bromide]

IC50 [1]: 160 µM
Compound: Cc1sc[n+](CC(=O)c2cc(C(C)(C)C)c(O)c(C(C)(C)C)c2)c1C [3-(2-(3′,5′-di-tert-butyl-4′-hydroxypheny].)-2-oxoethyl]-4,5-dimethyl-thiazolium bromide]

Breaking Anti-AGE ([2]; anti-AGE antibody, at 0.3 mM): 32%
Breaking Anti-BSA ([2]; anti-BSA antibody, at 0.3 mM): 50%
Compound: C=Cc1sc[n+](CC(=O)c2cc(C(C)(C)C)c(O)c(C(C)(C)C)c2)c1C [3-(2-(3′,5′-tert-butyl-4′-hydroxyphenyl)-2-oxoethyl)-4-methyl-5-vinyl-thiazolium bromide]

Compound: O=C(C[n+]1ccsc1)c1ccc2c(c1)OCCCO2.[Br-] [3-(2-(3′,4′-trimethylenedioxyphenyl)-2-oxoethyl]-thiazolium bromide]
Breaking Anti-AGE ([2]; anti-AGE antibody, at 10 mM): 17%
Breaking Anti-BSA ([2]; anti-BSA antibody, at 10 mM): 18%

Compound: Cc1cc(C)c(S(=O)(=O)[O-])c(C)c1.Nc1sc(-c2ccc3c(c2)OCCCO3)c[n+]1N [2,3-Diamino-5-(3′,4′-trimethylenedioxyphenyl) thiazolium mesitylene sulfonate]
Breaking Anti-AGE ([2]; anti-AGE antibody, at 1 mM): 13%
Breaking Anti-BSA ([2]; anti-BSA antibody, at 1 mM): 42%

Compound: O=C(C[n+]1ccsc1)c1ccc(Br)cc1.[Br-] [3-(2-(4^1-bromophenyl]-2-oxoethyl)-thiazolium bromide]
Breaking Anti-AGE ([2]; anti-AGE antibody, at 30 mM): 76%
Breaking Anti-BSA ([2]; anti-BSA antibody, at 30 mM): 25%

Breaking Anti-AGE [2]: 22%/44% (10)
Breaking Anti-BSA [2]: 22%/44% (10)
Compound: 3-(2-(3′-methoxyphenyl]-2-oxoethyl)-thiazolium bromide

Breaking Anti-AGE ([2]; anti-AGE antibody, at 30 mM): 65%
Breaking Anti-BSA ([2]; anti-BSA antibody, at 30 mM): 61%
IC50 [2, 3]: 0.42 mM
IC50 [2, 4]: 0.55 mM
Compound: Cc1c(CCO)sc[n+]1Cc1ccccc1.[Cl-] [3-benzyl-5-(2-hydroxyethyl)-4-methyl thiazolium chloride]

Compound: Cc1csc[n+]1CC(=O)c1cc(C(C)(C)C)c(O)c(C(C)(C)C)c1.[Br-] [3-[2-(3′,5′-di-tert-butyl-4′-hydroxyphenyl)-2-oxoethyl]-4-methyl-thiazolium bromide]
Breaking Anti-AGE ([2]; anti-AGE antibody, at 0.3 mM): 14%
Breaking Anti-BSA ([2]; anti-BSA antibody, at 0.3 mM): 2%
